# According to patent US20060035291A1, “Method of detecting cellular immunity and application thereof to drugs” (priority 2001, published 2006):
# Where two headings read alike, the source gives them in different places. Where no end group is shown, it is not given here.
# How the values were obtained:
# [1] = system: healthy donors; conditions: in vivo
# [2] = system: cancer patients; assay: Skin test for immediate and delayed type hypersensitivity in cancer patients; conditions: for type I allergy in skin tests during the course of vaccination: skin tests before the 9th and 17th dose (ART413, SART3315), 3rd pre-vaccination skin test (CypB91)
# Protocol: For the skin test, 10 μg of 5 kinds of peptides was subcutaneously administered to each patient. Saline was used as the negative control. 20 minutes and 24 hours after injection, immediate and delayed type hypersensitivity (DHT) reactions were looked for. The skin test reaction was determined as positive if erythema and sclerosis were more than 10 mm in diameter. If the immediate hypersensitivity reaction was negative, a peptide was administered. Each peptide solution (3 mg/ml) was mixed with the same amount of IFA (Montanide ISA-51) and emulsified in a 5-mI plastic syringe, and 3 ml of the emulsion was subcutaneously administered to the lateral femoral region every two weeks. Serum PSA level was measured 4 weeks after vaccination. The time passed was defined as the time from the registration day to the date when the progress of the target disease was recorded. For patients who chose to discontinue the study without any progress of the target disease (e.g., increase in PSA) it was determined that the disease had progressed at the time the study was stopped.
# When an immediate hypersensitivity reaction positive in the skin test of one of these peptides, that peptide was vaccinated if the fifth peptide of criteria A, B, or Z was negative in the skin test. […] In Table 14, o signifies vaccine peptides given to each patient.
# Vaccine was administered to HLA-A24 positive patients with progressive cancer as following. CypB91 was given to lung cancer patients, ART475 to ovarian cancer patients, and SART3109 to colorectal cancer patients. None of the patients received any steroids or other immunosuppressants from 4 weeks before the beginning of this study to the end of the study. When the skin test was negative, 1 ml of peptide solution (1 mg/ml) was emulsified with the same amount of Freund's incomplete adjuvant (Montanide ISA-51) and injected subcutaneously. In this embodiment, all patients were vaccinated at least three times every two weeks, and up to seventeen times, depending on the patient's wishes.
# [3] = system: cancer patients; conditions: cancer patients (Miyagi et al., Clin. Cancer Res. 7:3950, 2001); cited from earlier work
# [4] = system: HLA-A24 restricted antigen peptide-specific T cells (CTL precursors) in PBMCs; assay type: cell-based, human; conditions: for IFN-γ production 1st well / IFN-γ production 2nd well / IFN-γ production 3rd well / change in reactivity of PBMCs to the vaccinated peptide after vaccination: HLA-A24 positive cervical cancer patient; for change in reactivity of PBMCs to the vaccinated peptide after vaccination: before vs after 3rd and 6th dose; for CTL precursor induction assay, response level per well: quadricate assay
# [5] = system: healthy donors; assay: Allergic skin reaction (type I allergy) skin test in healthy donors
# [6] = system: CD8 positive and HLA-A24/peptide tetramer positive T cells; conditions: PBMCs of healthy donors sensitized in vitro with EBV peptide, protocol C
# Protocol: Recombinant HLA-A2402 a chains containing a biotinated portion and recombinant β2-microglobline were synthesized and used for refolding of soluble HLA molecules in the presence of HLA-A2402 binding peptides. […] Monomer HLA-peptide complex was biotinated with BirA in the a chain, which was isolated form free biotin by gel filtration. The biotinated HLA was tetramerized with 4:1 molar ratio of Strept-avidin-PE. PBMCs sensitized in vitro were re-suspended at the ratio of 5×10^5 cells per 25 μl of phosphate buffer saline (PBS) containing 20% of human AB serum. […] After that, the cells were washed with PBS and analyzed using FACScan. Twenty thousand events were obtained.
# More specifically, PBMCs stimulated according to protocol C determined in Example 3 were analyzed by the tetramer assay as described above.
# [7] = after more than 5 doses of cancer vaccine
# [8] = before vaccination, response to HIV-C1R-A24 cells subtracted
# [9] = colorectal cancer patient 4, after the 3rd vaccination
# [10] = HRPC Pt. 3, pre-vaccinated PBMCs
# [11] = HLA-A24 positive cervical cancer patient PBMCs
# [12] = HRPC Pt. 1, pre-vaccinated PBMCs
sequence,measurement,setting,value
"AFLRHAAL [ART413, AFLRHAAL]",rate of skin reaction occurrence,[1],95%
same,rate of skin reaction occurrence (donors),[1],38/40
same,immediate hypersensitivity reaction in skin test,"[2]; human, in vivo",positive in all patients
same,type I allergy in skin tests during the course of vaccination,[2],did not induce type I allergy
same,allergic skin reaction in pre-vaccination study,[3],induced allergic skin reaction
AYIDFEMKI [SART3315],rate of skin reaction occurrence,[1],45%
same,rate of skin reaction occurrence (donors),[1],18/40
same,type I allergy in skin tests during the course of vaccination,[2],did not induce type I allergy
same,allergic skin reaction in pre-vaccination study,[3],induced allergic skin reaction
DFMIQGGDF [CypB91],rate of skin reaction occurrence (donors),[1],no such response
same,immediate hypersensitivity reaction in skin test,"[2]; human, in vivo",positive in all patients
same,type I allergy in skin tests during the course of vaccination,[2],induced type I allergy
DYLRSVLEDF [lck488],IFN-γ production 1st well,[4]; [7],25 pg/well
same,IFN-γ production 2nd well,[4]; [7],99 pg/well
same,IFN-γ production 1st well,[4]; [8],<0 pg/well
same,IFN-γ production 2nd well,[4]; [8],<0 pg/well
same,IFN-γ production 3rd well,[4]; [8],25 pg/well
same,peptide-specific DTH reaction,[2]; colorectal cancer patient 1,observed after the 6th vaccination
same,peptide-specific DTH reaction,[2]; [9],exhibited DTH reaction
DYPSLSATDI [ART475],rate of skin reaction occurrence (donors),[1],no such response
same,IFN-γ production 1st well,[4]; [7],9 pg/well
same,IFN-γ production 2nd well,[4]; [7],2 pg/well
same,IFN-γ production 3rd well,[4]; [7],60 pg/well
same,change in reactivity of PBMCs to the vaccinated peptide after vaccination,[4],increase in reactivity
same,"CTL precursor induction assay, response level per well",[4]; [10],⊚AE
same,"CTL precursor induction assay, response level per well","[4]; HRPC Pt. 4, pre-vaccinated PBMCs",⊚B
EYCLKFTKL [ART1170],immediate hypersensitivity reaction in skin test,"[2]; 10 colorectal cancer patients, before vaccination",positive in all patients
HFHRVIPDF,"Allergic skin reaction, area of flare",[5]; healthy donor HD1,375 mm × mm
same,"Allergic skin reaction, area of flare",[5]; healthy donor HD2,1225 mm × mm
same,"Allergic skin reaction, area of flare",[5]; healthy donor HD3,750 mm × mm
same,"Allergic skin reaction, area of flare",[5]; healthy donor HD6,900 mm × mm
same,"Allergic skin reaction, area of flare",[5]; healthy donor HD10,156 mm × mm
HYTNASDGL [lck208],frequency of detection in the primary screening (patients),[4],3/10
same,IFN-γ production After 3rd dose of vaccine,[4]; [11],676 pg/mL
same,IFN-γ production After 6th dose of vaccine,[4]; [11],745 pg/mL
same,IFN-γ production Pre-Vaccination,[4]; [11],602 pg/mL
same,IFN-γ production 1st well,[4]; [7],41 pg/well
same,IFN-γ production 2nd well,[4]; [7],1473 pg/well
same,IFN-γ production 1st well,[4]; [8],<0 pg/well
same,IFN-γ production 2nd well,[4]; [8],<0 pg/well
same,IFN-γ production 3rd well,[4]; [8],76 pg/well
same,change in reactivity of PBMCs to the vaccinated peptide after vaccination,[4],increase in reactivity
same,"CTL precursor induction assay, response level per well",[4]; [12],E^′
same,"CTL precursor induction assay, response level per well",[4]; [10],⊚AD
same,"CTL precursor induction assay, response level per well","[4]; HRPC Pt. 6, pre-vaccinated PBMCs",⊚ArAAC
same,"CTL precursor induction assay, response level per well","[4]; HRPC Pt. 9, pre-vaccinated PBMCs",⊚AD
same,positive well frequency after vaccination,[4]; colorectal cancer patient 1,increase in positive well frequency
same,positive well frequency after vaccination,[4]; colorectal cancer patient 2,increase in positive well frequency
same,peptide-specific DTH reaction,[2]; colorectal cancer patient 1,observed after the 6th vaccination
same,peptide-specific DTH reaction,[2]; [9],exhibited DTH reaction
KFHRVIKDF [CypB84],rate of skin reaction occurrence,[1],95%
same,rate of skin reaction occurrence (donors),[1],39/41
same,patients with immediate hypersensitivity reaction in pre-vaccination skin test,"[2]; vaccinated patients with lung cancer, Phase I clinical trial",8 of 10
KFHRVIPKF,"Allergic skin reaction, area of flare",[5]; healthy donor HD1,600 mm × mm
same,"Allergic skin reaction, area of flare",[5]; healthy donor HD2,750 mm × mm
same,"Allergic skin reaction, area of flare",[5]; healthy donor HD3,1225 mm × mm
same,"Allergic skin reaction, area of flare",[5]; healthy donor HD6,500 mm × mm
same,"Allergic skin reaction, area of flare",[5]; healthy donor HD10,625 mm × mm
NFHRVIKDF,"Allergic skin reaction, area of flare",[5]; healthy donor HD1,360 mm × mm
same,"Allergic skin reaction, area of flare",[5]; healthy donor HD2,1400 mm × mm
same,"Allergic skin reaction, area of flare",[5]; healthy donor HD3,600 mm × mm
same,"Allergic skin reaction, area of flare",[5]; healthy donor HD6,1350 mm × mm
same,"Allergic skin reaction, area of flare",[5]; healthy donor HD10,300 mm × mm
PFHRVIPDF,"Allergic skin reaction, area of flare",[5]; healthy donor HD1,525 mm × mm
same,"Allergic skin reaction, area of flare",[5]; healthy donor HD2,2000 mm × mm
same,"Allergic skin reaction, area of flare",[5]; healthy donor HD3,1400 mm × mm
same,"Allergic skin reaction, area of flare",[5]; healthy donor HD6,700 mm × mm
same,"Allergic skin reaction, area of flare",[5]; healthy donor HD10,270 mm × mm
RYLRQQLLGI [HIV peptide],ratio of the CD8 positive and HLA-A24/peptide tetramer positive subsets,[6],0.03%
SFHRVIKDF,skin reaction compared with human CypB84,[5]; 5 healthy donors,weaker skin reaction
same,"Allergic skin reaction, area of flare",[5]; healthy donor HD1,0 mm × mm
same,"Allergic skin reaction, area of flare",[5]; healthy donor HD2,400 mm × mm
same,"Allergic skin reaction, area of flare",[5]; healthy donor HD3,225 mm × mm
same,"Allergic skin reaction, area of flare",[5]; healthy donor HD6,255 mm × mm
same,"Allergic skin reaction, area of flare",[5]; healthy donor HD10,100 mm × mm
SYTRLFLIL [SART2899],rate of skin reaction occurrence,[1],25%
same,rate of skin reaction occurrence (donors),[1],10/40
same,immediate hypersensitivity reaction in skin test,"[2]; human, in vivo",positive in all patients
same,allergic skin reaction in pre-vaccination study,[3],induced allergic skin reaction
TFDYLRSVL [lck486],IFN-γ production 1st well,[4]; [7],2 pg/well
same,IFN-γ production 2nd well,[4]; [7],24 pg/well
same,IFN-γ production 3rd well,[4]; [7],<0 pg/well
same,IFN-γ production 1st well,[4]; [8],<0 pg/well
same,IFN-γ production 2nd well,[4]; [8],<0 pg/well
same,IFN-γ production 3rd well,[4]; [8],31 pg/well
same,"CTL precursor induction assay, response level per well",[4]; [12],E (E: 0.1<p≦0.2 and 100≦net)
same,"CTL precursor induction assay, response level per well","[4]; HRPC Pt. 2, pre-vaccinated PBMCs",^b(⊚B)
same,"CTL precursor induction assay, response level per well",[4]; [10],(D)
same,"CTL precursor induction assay, response level per well","[4]; HRPC Pt. 8, pre-vaccinated PBMCs",⊚A
same,peptide-specific DTH reaction,[2]; [9],exhibited DTH reaction
TFHRVIKDF,"Allergic skin reaction, area of flare",[5]; healthy donor HD1,540 mm × mm
same,"Allergic skin reaction, area of flare",[5]; healthy donor HD2,1400 mm × mm
same,"Allergic skin reaction, area of flare",[5]; healthy donor HD3,750 mm × mm
same,"Allergic skin reaction, area of flare",[5]; healthy donor HD6,450 mm × mm
same,"Allergic skin reaction, area of flare",[5]; healthy donor HD10,300 mm × mm
"TYGPVFMCL [EBV, reference compound]",detection of peptide-specific T cells,[4],detected in all 10 donors
same,difference in IFN-γ production between target cells sensitized with EB virus peptide and HIV peptide,[4],2775 pg/mL
same,difference in production level of IFN-γ between target cells sensitized with EB virus peptide and HIV peptide,[4],more than 300 pg/ml
same,ratio of the CD8 positive and HLA-A24/peptide tetramer positive subsets,[6],1.15%
